Earlier results in patent US20130224794A1, “MINERAL-PEPTIDE CHELATES” (NUGEN BIOSCIENCE (TAIWAN) CO., LTD., priority 2009, published 2013).
Read-outs that look alike come from different tables or passages of the source.

Conditions: for absorption: qualitative
[1] = general soybean isoflavones, glucoside vs aglycone form

O=c1c(-c2ccc(O)cc2)coc2cc(O)ccc12 [daidzein]
bioavailability (in vivo): 90%

O=c1c(-c2ccc(O)cc2)coc2cc(O[C@@H]3O[C@H](CO)[C@@H](O)[C@H](O)[C@H]3O)ccc12 [daidzin]
bioavailability [1]: 20% | absorption [1]: slow

O=c1c(-c2ccc(O)cc2)coc2cc(O)cc(O)c12 [genistein]
bioavailability [1]: 90% | absorption [1]: fast

O=c1c(-c2ccc(O)cc2)coc2cc(O[C@@H]3O[C@H](CO)[C@@H](O)[C@H](O)[C@H]3O)cc(O)c12 [genistin]
bioavailability [1]: 20% | absorption [1]: slow
